Drawing on BindingDB's records for patent US12065447 (Shanghai Institute of Materia Medica, 2024), this text covers IC50 for 24 molecules.

pIC50: −log10 of the molar value.

This assay has as its target T1, Receptor-interacting serine/threonine-protein kinase 1 (Homo sapiens, UniProt Q13546).
T1 sequence (Q13546 whole entry): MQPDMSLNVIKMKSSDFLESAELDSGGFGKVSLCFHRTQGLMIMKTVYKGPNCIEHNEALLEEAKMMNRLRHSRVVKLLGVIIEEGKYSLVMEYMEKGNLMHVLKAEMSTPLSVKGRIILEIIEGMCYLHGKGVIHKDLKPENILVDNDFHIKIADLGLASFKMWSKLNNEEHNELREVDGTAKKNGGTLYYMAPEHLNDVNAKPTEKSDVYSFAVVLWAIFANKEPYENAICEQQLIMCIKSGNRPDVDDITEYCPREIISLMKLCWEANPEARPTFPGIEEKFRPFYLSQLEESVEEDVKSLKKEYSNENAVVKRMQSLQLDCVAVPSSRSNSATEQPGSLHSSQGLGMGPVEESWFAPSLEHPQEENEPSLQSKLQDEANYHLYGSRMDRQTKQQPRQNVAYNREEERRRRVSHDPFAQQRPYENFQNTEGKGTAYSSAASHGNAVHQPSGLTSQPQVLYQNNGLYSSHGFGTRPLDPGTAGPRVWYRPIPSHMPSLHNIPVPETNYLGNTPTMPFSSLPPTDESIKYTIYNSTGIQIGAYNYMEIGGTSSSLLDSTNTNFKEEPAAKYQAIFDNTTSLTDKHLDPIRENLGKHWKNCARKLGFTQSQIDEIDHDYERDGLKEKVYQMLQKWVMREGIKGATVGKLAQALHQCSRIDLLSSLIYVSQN
As to the kind of experiment: Cell Viability Test. The text has this: TNFalpha induced U937 cell programmed necroptosis system was used to screen for compounds with RIP 1 kinase inhibitory activity.

Usually pIC50 stands for the negative decadic logarithm of the IC50, by convention in mol/L. High values mean a low IC50, low ones a high IC50. `CN1C(=O)[C@@H](NC(=O)c2ncc(Cc3ccccc3)o2)COc2ccc(C#Cc3cccnc3)cc21` [US12065447, Compound ZB-R-20]: the pIC50 is > 9.30.
Then `CN1C(=O)[C@@H](NC(=O)c2ncn(Cc3ccccc3)n2)COc2ccc(C#Cc3cccnc3)cc21` [US12065447, Compound ZB-R-24], with > 9.00; and `CN1C(=O)[C@@H](NC(=O)c2cc(Cc3ccccc3)ccn2)COc2ccc(C#Cc3cccnc3)cc21` [US12065447, Compound ZB-R-25], with > 8.70; and `Cc1c(C#Cc2cnn(C)c2)sc2c1SC[C@H](NC(=O)c1nnc(Cc3ccccc3)[nH]1)C(=O)N2C` [US12065447, Compound ZB-R-39], with 9.77.
Then `Cc1c(C#Cc2cccnc2)sc2c1SC[C@H](NC(=O)c1nnc(Cc3ccccc3)[nH]1)C(=O)N2C` [US12065447, Compound ZB-R-42], with 9.49.
As to `Cc1c(C#CC2CCOCC2)sc2c1SC[C@H](NC(=O)c1nnc(Cc3ccccc3)[nH]1)C(=O)N2C` [US12065447, Compound ZB-R-44], the negative-log IC50 (pIC50) was 8.39.
On to `Cc1c(C#CC2CC2)sc2c1SC[C@H](NC(=O)c1nnc(Cc3ccccc3)[nH]1)C(=O)N2C` [US12065447, Compound ZB-R-45], for which the pIC50 was 8.09.
On to `Cc1c(C#Cc2ccccn2)sc2c1SC[C@H](NC(=O)c1nnc(Cc3ccccc3)[nH]1)C(=O)N2C` [US12065447, Compound ZB-R-46], for which the pIC50 was 8.27.
Then `Cc1c(C#Cc2ccncc2)sc2c1SC[C@H](NC(=O)c1nnc(Cc3ccccc3)[nH]1)C(=O)N2C` [US12065447, Compound ZB-R-47], with 9.41; and `CN1C(=O)[C@@H](NC(=O)c2n[nH]c(Cc3ccccc3)n2)COc2ccc(C#Cc3ccccn3)cc21` [US12065447, Compound ZB-R-50], with 9.59.
Then `CN1C(=O)[C@@H](NC(=O)c2n[nH]c(Cc3ccccc3)n2)COc2ccc(C#Cc3cccnc3)cc21` [US12065447, Compound ZB-R-51], with > 9.30; and `CN1C(=O)[C@@H](NC(=O)c2n[nH]c(Cc3ccccc3)n2)COc2ccc(C#Cc3ccncc3)cc21` [US12065447, Compound ZB-R-52], with 9.38.
Turning to `CN1C(=O)[C@@H](NC(=O)c2n[nH]c(Cc3ccccc3)n2)COc2ccc(C#Cc3cnn(C)c3)cc21` [US12065447, Compound ZB-R-53], the pIC50 is 9.96.
The molecule `CN1C(=O)[C@@H](NC(=O)c2n[nH]c(Cc3ccccc3)n2)COc2ccc(C#CC3CCOCC3)cc21` [US12065447, Compound ZB-R-54] showed a pIC50 of 10.00.
Then `COCC#Cc1ccc2c(c1)N(C)C(=O)[C@@H](NC(=O)c1nnc(Cc3ccccc3)[nH]1)CO2` [US12065447, Compound ZB-R-68], with 9.70; and `CN1C(=O)[C@@H](NC(=O)c2n[nH]c(Cc3ccccc3)n2)COc2ccc(C#CC(C)(C)O)cc21` [US12065447, Compound ZB-R-76], with 9.27.
`CN1C(=O)[C@@H](NC(=O)c2n[nH]c(Cc3ccccc3)n2)COc2ccc(C#CC3(O)COC3)cc21` [US12065447, Compound ZB-R-78] had a pIC50 of 9.46.
Then `Cc1cc([C@](C)(O)C#Cc2ccc3c(c2)N(C)C(=O)[C@@H](NC(=O)c2nnc(Cc4ccccc4)[nH]2)CO3)no1` [US12065447, Compound ZB-R-80], with 9.51; and `Cc1cc([C@@](C)(O)C#Cc2ccc3c(c2)N(C)C(=O)[C@@H](NC(=O)c2nnc(Cc4ccccc4)[nH]2)CO3)no1` [US12065447, Compound ZB-R-81], with 9.54; and `Cc1c(C#Cc2cncn2C)sc2c1SC[C@H](NC(=O)c1nnc(Cc3ccccc3)[nH]1)C(=O)N2C` [US12065447, Compound ZB-R-82], with 9.52.
For the molecule `COCC#Cc1sc2c(c1C)SC[C@H](NC(=O)c1nnc(Cc3ccccc3)[nH]1)C(=O)N2C` [US12065447, Compound ZB-R-84], the pIC50 is 9.72.
Then `Cc1c(C#CC(C)(C)O)sc2c1SC[C@H](NC(=O)c1nnc(Cc3ccccc3)[nH]1)C(=O)N2C` [US12065447, Compound ZB-R-85], with 8.96; and `Cc1c(C#CC2(O)COC2)sc2c1SC[C@H](NC(=O)c1nnc(Cc3ccccc3)[nH]1)C(=O)N2C` [US12065447, Compound ZB-R-87], with 9.70; and `Cc1cc([C@](C)(O)C#Cc2sc3c(c2C)SC[C@H](NC(=O)c2nnc(Cc4ccccc4)[nH]2)C(=O)N3C)no1` [US12065447, Compound ZB-R-89], with 8.77.
